In the kinase profiling compilation of Christmann-Franck et al. (2016):

Experiments:
Assay in all cases: radiometric filter-binding kinase assay
TAOK1 (human) = TAOK1 (human) (UniProt Q7L7X3)
FGFR1 (human) = FGFR1 (human) (UniProt P11362)
STK11 (human) = STK11 (human) (UniProt Q15831)
DAPK1 (human) = DAPK1 (human) (UniProt P53355)
ABL1 (human) = ABL1 (human) (UniProt P00519)
CDK9 CCNT1 (human) = CDK9 CCNT1 (human) (UniProt P50750+O60563)
PRKCG (human) = PRKCG (human) (UniProt P05129)
MARK1 (human) = MARK1 (human) (UniProt Q9P0L2)
ERBB4 (human) = ERBB4 (human) (UniProt Q15303)
INSR (human) = INSR (human) (UniProt P06213)
MAPK11 (human) = MAPK11 (human) (UniProt Q15759)
Sequence of MAPK11 (human) (Q15759 whole entry, looked up): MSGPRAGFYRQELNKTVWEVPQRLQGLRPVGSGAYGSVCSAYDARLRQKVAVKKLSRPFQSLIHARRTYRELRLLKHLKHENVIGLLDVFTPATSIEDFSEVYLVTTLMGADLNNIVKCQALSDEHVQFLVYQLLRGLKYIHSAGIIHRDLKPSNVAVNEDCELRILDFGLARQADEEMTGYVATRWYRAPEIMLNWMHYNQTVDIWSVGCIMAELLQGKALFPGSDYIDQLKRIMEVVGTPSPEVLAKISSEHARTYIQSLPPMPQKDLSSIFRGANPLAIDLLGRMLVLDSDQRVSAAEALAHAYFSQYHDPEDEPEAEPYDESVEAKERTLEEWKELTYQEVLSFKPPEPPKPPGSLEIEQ

MAPK8 (human) = MAPK8 (human) (UniProt P45983)
MAP3K7 (human) = MAP3K7 (human) (UniProt O43318)
Sequence of MAP3K7 (human) (O43318 whole entry, looked up): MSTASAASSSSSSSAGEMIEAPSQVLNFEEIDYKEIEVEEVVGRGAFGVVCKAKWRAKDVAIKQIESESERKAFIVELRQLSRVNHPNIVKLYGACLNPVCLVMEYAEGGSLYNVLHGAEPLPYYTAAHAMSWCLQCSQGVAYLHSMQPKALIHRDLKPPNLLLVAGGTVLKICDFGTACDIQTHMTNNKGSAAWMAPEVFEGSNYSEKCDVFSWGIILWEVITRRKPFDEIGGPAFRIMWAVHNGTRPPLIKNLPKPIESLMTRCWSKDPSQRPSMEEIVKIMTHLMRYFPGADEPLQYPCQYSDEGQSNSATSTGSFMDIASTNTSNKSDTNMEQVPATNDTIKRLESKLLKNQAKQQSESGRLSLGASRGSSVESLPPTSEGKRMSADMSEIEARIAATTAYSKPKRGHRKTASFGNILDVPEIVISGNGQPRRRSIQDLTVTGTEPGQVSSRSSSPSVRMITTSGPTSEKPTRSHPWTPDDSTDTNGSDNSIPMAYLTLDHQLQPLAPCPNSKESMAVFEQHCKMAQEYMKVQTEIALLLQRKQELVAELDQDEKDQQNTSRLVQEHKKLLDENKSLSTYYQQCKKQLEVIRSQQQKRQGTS

SRPK1 (human) = SRPK1 (human) (UniProt Q96SB4)
BRSK2 (human) = BRSK2 (human) (UniProt Q8IWQ3)
EPHA4 (human) = EPHA4 (human) (UniProt P54764)
ULK1 (human) = ULK1 (human) (UniProt O75385)
Sequence of ULK1 (human) (O75385 whole entry, looked up): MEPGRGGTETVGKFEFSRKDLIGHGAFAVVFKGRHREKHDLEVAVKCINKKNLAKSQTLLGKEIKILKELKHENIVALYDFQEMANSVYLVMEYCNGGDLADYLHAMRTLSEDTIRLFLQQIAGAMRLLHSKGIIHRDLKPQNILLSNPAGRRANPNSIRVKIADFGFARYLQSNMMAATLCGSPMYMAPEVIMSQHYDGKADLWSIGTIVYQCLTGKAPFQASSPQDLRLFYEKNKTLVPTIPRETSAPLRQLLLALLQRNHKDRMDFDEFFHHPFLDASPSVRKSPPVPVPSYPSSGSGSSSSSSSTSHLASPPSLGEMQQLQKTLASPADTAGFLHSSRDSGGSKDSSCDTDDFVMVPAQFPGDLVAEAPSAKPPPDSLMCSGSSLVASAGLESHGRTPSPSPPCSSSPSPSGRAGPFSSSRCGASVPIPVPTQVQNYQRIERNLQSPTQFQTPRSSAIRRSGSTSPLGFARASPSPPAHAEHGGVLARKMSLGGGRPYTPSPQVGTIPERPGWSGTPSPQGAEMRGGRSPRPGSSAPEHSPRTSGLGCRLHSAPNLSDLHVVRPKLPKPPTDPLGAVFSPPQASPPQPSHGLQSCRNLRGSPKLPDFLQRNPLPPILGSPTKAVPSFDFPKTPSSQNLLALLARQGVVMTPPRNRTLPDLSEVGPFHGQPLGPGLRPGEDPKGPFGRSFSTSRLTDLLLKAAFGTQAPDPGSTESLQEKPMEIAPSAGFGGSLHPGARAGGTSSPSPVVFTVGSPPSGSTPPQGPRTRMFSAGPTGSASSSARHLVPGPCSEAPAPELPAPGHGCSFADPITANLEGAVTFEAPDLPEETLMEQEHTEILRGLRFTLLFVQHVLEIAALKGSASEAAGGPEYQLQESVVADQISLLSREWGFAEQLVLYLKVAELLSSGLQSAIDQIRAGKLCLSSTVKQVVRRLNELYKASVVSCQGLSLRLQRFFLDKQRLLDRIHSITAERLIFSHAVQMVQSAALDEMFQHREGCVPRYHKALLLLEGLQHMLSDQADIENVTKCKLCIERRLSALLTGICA

[1] = target: PRKAA1 PRKAB2 PRKAG1 (human) (UniProt O43741+Q13131+P54619)
MKNK1 (human) = MKNK1 (human) (UniProt Q9BUB5)
Sequence of MKNK1 (human) (Q9BUB5 whole entry, looked up): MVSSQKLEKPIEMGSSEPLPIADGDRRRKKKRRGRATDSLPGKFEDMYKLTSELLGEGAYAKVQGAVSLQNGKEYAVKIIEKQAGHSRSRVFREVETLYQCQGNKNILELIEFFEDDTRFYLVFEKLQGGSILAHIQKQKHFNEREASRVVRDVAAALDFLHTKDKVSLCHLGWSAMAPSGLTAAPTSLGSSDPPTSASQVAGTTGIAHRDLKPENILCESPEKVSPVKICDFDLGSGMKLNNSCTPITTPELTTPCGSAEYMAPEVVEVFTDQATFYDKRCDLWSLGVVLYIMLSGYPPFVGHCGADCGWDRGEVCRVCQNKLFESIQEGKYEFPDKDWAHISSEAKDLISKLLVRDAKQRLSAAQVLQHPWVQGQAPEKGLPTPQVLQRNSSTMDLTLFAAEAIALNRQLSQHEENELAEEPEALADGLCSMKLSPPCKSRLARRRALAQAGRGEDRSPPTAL

AURKA (human) = AURKA (human) (UniProt O14965)
MAPK14 (human) = MAPK14 (human) (UniProt Q16539)
PIM3 (human) = PIM3 (human) (UniProt Q86V86)
MAP3K1 (human) = MAP3K1 (human) (UniProt Q13233)
EPHA2 (human) = EPHA2 (human) (UniProt P29317)
TTBK1 (human) = TTBK1 (human) (UniProt Q5TCY1)
SRC (human) = SRC (human) (UniProt P12931)
TTBK2 (human) = TTBK2 (human) (UniProt Q6IQ55)
EEF2K (human) = EEF2K (human) (UniProt O00418)
Sequence of EEF2K (human) (O00418 whole entry, looked up): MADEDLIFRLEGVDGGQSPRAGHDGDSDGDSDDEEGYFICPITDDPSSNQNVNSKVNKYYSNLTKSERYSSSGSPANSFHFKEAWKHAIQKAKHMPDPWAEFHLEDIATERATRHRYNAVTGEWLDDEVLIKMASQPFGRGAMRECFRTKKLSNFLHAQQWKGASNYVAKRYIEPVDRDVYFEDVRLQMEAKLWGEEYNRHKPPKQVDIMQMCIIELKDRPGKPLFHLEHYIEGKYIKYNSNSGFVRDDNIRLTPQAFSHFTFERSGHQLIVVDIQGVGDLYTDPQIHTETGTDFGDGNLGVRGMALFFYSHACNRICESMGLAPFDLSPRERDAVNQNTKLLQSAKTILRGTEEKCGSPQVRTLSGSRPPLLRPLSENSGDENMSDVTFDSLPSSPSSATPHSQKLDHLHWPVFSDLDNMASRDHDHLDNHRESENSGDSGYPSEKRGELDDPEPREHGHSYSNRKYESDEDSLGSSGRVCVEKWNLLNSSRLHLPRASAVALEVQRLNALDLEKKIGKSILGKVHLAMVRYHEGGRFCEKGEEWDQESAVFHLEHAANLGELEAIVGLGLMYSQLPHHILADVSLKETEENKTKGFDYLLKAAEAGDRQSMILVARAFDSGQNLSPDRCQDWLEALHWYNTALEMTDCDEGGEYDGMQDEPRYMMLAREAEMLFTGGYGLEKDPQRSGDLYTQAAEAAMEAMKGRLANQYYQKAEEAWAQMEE

PTK6 (human) = PTK6 (human) (UniProt Q13882)
MKNK2 (human) = MKNK2 (human) (UniProt Q9HBH9)
[2] = system: AKT1 (human), P31749 [S473D]
RPS6KA3 KD1 KD2 (human) = RPS6KA3 KD1 KD2 (human) (UniProt P51812)

Sequence of ABL1 (human) (P00519 whole entry, looked up): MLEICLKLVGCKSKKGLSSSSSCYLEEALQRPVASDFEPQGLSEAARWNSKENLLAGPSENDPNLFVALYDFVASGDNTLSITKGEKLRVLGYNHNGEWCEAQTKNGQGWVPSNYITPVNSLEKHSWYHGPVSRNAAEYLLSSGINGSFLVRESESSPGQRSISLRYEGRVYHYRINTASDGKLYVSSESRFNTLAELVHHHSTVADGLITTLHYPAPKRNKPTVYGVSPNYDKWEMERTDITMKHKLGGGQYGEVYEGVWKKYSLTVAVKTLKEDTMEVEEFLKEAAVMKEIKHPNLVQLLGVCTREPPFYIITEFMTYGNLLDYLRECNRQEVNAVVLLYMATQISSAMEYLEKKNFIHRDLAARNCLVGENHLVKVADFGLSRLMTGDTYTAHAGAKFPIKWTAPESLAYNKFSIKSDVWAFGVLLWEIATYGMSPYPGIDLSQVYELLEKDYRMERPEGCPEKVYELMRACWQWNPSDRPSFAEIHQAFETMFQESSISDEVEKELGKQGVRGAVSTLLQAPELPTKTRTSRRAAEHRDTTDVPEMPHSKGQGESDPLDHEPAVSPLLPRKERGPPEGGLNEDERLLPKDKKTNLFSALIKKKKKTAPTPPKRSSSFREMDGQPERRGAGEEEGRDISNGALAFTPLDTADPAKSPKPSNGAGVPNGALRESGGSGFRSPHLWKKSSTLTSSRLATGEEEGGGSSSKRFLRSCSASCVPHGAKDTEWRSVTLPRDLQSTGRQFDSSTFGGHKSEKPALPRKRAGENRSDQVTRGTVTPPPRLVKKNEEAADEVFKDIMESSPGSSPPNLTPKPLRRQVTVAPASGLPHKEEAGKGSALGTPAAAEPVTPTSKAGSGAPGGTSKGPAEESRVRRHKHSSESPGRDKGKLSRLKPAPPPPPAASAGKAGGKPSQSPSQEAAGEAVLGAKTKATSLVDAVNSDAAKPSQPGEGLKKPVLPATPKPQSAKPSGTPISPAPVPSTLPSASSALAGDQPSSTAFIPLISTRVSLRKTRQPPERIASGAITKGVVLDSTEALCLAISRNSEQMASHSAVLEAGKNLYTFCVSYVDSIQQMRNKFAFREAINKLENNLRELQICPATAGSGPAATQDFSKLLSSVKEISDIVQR

With `CNc1nc(Nc2ccc(C(=O)N3CCOCC3)cc2OC)ncc1Cl` the residual activity (TAOK1 (human); compound 1.0 µM) was 81%, the residual activity (TAOK1 (human); compound 10.0 µM) was 93% and the residual activity (FGFR1 (human); compound 1.0 µM) was 89%. It also gave a residual activity (FGFR1 (human); compound 10.0 µM) of 86%, a residual activity (STK11 (human); compound 1.0 µM) of 92% and a residual activity (STK11 (human); compound 10.0 µM) of 90%. The residual activity (DAPK1 (human); compound 1.0 µM) was 61%, the residual activity (DAPK1 (human); compound 10.0 µM) was 23% and the residual activity (ABL1 (human); compound 1.0 µM) was 84%. For the same molecule, the residual activity (ABL1 (human); compound 10.0 µM) was 86%, the residual activity (CDK9 CCNT1 (human); compound 1.0 µM) was 89% and the residual activity (CDK9 CCNT1 (human); compound 10.0 µM) was 83%. The residual activity (PRKCG (human); compound 1.0 µM) was 93%, the residual activity (PRKCG (human); compound 10.0 µM) was 108% and the residual activity (MARK1 (human); compound 1.0 µM) was 91%. The residual activity (MARK1 (human); compound 10.0 µM) was 84%, the residual activity (ERBB4 (human); compound 1.0 µM) was 89% and the residual activity (ERBB4 (human); compound 10.0 µM) was 94%. The residual activity (INSR (human); compound 1.0 µM) was 86%, the residual activity (INSR (human); compound 10.0 µM) was 50% and the residual activity (MAPK11 (human); compound 1.0 µM) was 57%. The residual activity (MAPK11 (human); compound 10.0 µM) was 93%, the residual activity (MAPK8 (human); compound 1.0 µM) was 89% and the residual activity (MAPK8 (human); compound 10.0 µM) was 37%. It also gave a residual activity (MAP3K7 (human); compound 1.0 µM) of 74%, a residual activity (MAP3K7 (human); compound 10.0 µM) of 25% and a residual activity (SRPK1 (human); compound 1.0 µM) of 96%. The residual activity (SRPK1 (human); compound 10.0 µM) was 94%, the residual activity (BRSK2 (human); compound 1.0 µM) was 78% and the residual activity (BRSK2 (human); compound 10.0 µM) was 64%. The residual activity (EPHA4 (human); compound 1.0 µM) was 100%, the residual activity (EPHA4 (human); compound 10.0 µM) was 94% and the residual activity (ULK1 (human); compound 1.0 µM) was 62%. It also gave a residual activity (ULK1 (human); compound 10.0 µM) of 85%, a residual activity ([1]; compound 1.0 µM) of 91% and a residual activity ([1]; compound 10.0 µM) of 71%. The residual activity (MKNK1 (human); compound 1.0 µM) was 71%, the residual activity (MKNK1 (human); compound 10.0 µM) was 44% and the residual activity (AURKA (human); compound 1.0 µM) was 56%. The residual activity (AURKA (human); compound 10.0 µM) was 45%, the residual activity (MAPK14 (human); compound 1.0 µM) was 71% and the residual activity (MAPK14 (human); compound 10.0 µM) was 93%. The residual activity (PIM3 (human); compound 1.0 µM) was 77%, the residual activity (PIM3 (human); compound 10.0 µM) was 72% and the residual activity (MAP3K1 (human); compound 1.0 µM) was 93%. It also gave a residual activity (MAP3K1 (human); compound 10.0 µM) of 98%, a residual activity (EPHA2 (human); compound 1.0 µM) of 93% and a residual activity (EPHA2 (human); compound 10.0 µM) of 97%. It also gave a residual activity (TTBK1 (human); compound 1.0 µM) of 88%, a residual activity (TTBK1 (human); compound 10.0 µM) of 91% and a residual activity (SRC (human); compound 1.0 µM) of 84%. For the same molecule, the residual activity (SRC (human); compound 10.0 µM) was 79%, the residual activity (TTBK2 (human); compound 1.0 µM) was 115% and the residual activity (TTBK2 (human); compound 10.0 µM) was 97%. It also gave a residual activity (EEF2K (human); compound 1.0 µM) of 83%, a residual activity (EEF2K (human); compound 10.0 µM) of 86% and a residual activity (PTK6 (human); compound 1.0 µM) of 56%. For the same molecule, the residual activity (PTK6 (human); compound 10.0 µM) was 39%, the residual activity (MKNK2 (human); compound 1.0 µM) was 20% and the residual activity (MKNK2 (human); compound 10.0 µM) was 7%. It also gave a residual activity ([2]; compound 1.0 µM) of 53%, a residual activity ([2]; compound 10.0 µM) of 85% and a residual activity (RPS6KA3 KD1 KD2 (human); compound 1.0 µM) of 92%. The residual activity (RPS6KA3 KD1 KD2 (human); compound 10.0 µM) was 65%.
